Reference: patent publication US6335325B1, “Acylated 4-aminopyridine derivatives as pesticides and fungicides” (Bayer Aktiengesellschaft, priority 1997, dated 2002)

Experiments:
[1] = system: caterpillars of the owlet moth (Spodoptera exigua); experiment: Spodoptera exigua Test; assay type: in vivo; details: active compound concentration of 0.0008%; after 6 days; dipped cabbage leaves (Brassica oleracea)
Protocol: Solvent: 7 parts by weight of dimethylformamide
Emulsifier: 1 part by weight of alkylaryl polyglycol ether
After the desired period of time, the kill in % is determined. 100% means that all caterpillars have been killed; 0% means that none of the caterpillars have been killed.

[2] = logP determination by HPLC (EEC Directive 79/831 Annex V. A8); assay type: physicochemical; details: pH 2; pH2; HPLC gradient method, acetonitrile/0.1% strength aqueous phosphoric acid
Protocol: [logP=The logP values were determined in accordance with EEC Directive 79/831 Annex V. A8 by HPLC (gradient method, acetonitrile/0.1% strength aqueous phosphoric acid]

CCc1nccc(N(C(=O)Cc2ccc(Oc3ccc(C(N)=S)cc3)cc2)C(=O)OC(C)C)c1Cl [Preparation Example 1, N-(3-chloro-2-ethyl-pyridin-4-yl)-N-isopropoxycarbonyl-4-(4-aminothiocarbonylphenoxy)-phenylacetamide]
kill in % [1]: 100% | chromatographic logP [2]: 3.71
